pKd, pKi: −log10 of the molar value. Activity calls are given as the source filed them. The rule behind the calls is not given here.
Tests used:
[1] = target: T1, Chromobox protein homolog 7 (Homo sapiens, UniProt O95931); assay: Binding affinity to CBX7ChD (7 to 66 residues) (unknown origin) expressed in RIPL-BL21 (DE3)-CodonPlus competent cells in presence of FITC-labeled SETDB1-K1170me3/H3K27me3/ANRIL-LoopC RNA by fluorescence anisotropy assay
T1 sequence (O95931 whole entry): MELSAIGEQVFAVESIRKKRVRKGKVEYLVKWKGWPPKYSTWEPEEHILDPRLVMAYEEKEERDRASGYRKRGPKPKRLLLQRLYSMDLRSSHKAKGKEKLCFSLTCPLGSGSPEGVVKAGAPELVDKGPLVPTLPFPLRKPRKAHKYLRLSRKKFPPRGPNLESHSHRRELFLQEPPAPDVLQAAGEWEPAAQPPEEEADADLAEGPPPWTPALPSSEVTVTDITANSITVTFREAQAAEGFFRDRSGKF

[2] = target: T2, Chromobox protein homolog 7 (Homo sapiens) (UniProt O95931); assay: Antagonist activity at CBX7ChD (7 to 66 residues) expressed in human PC3 cells assessed as transcriptional derepression of p16INK4a at 50 to 250 uM after 12 hrs by qPCR method; type: cell-based; conditions: PC-3
T2 sequence (whole entry): T1 sequence (O95931 whole entry)

[3] = target: T1, Chromobox protein homolog 7; assay: Binding affinity to CBX7ChD (7 to 66 residues) (unknown origin) expressed in RIPL-BL21 (DE3)-CodonPlus competent cells assessed as compound/protein/FITC-labeled loop C of ANRIL ternary complex formation by fluorescence anisotropy assay
[4] = target: T3, Chromobox protein homolog 7 (Mus musculus) (UniProt Q8VDS3); assay: Antagonist activity at CBX7ChD (7 to 66 residues) expressed in mouse embryonic stem cells assessed as p16INK4a expression levels at 1 to 2 uM after 12 hrs by Western blot analysis; type: cell-based
T3 sequence (whole entry): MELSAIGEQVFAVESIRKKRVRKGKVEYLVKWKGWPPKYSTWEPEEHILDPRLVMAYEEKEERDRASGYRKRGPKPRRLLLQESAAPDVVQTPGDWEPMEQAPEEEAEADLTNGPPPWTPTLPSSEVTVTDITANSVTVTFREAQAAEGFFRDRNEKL

[5] = Induction of transcriptional derepression of HIF1a in human PC3 cells at 1 to 5 uM after 12 hrs by qPCR method; type: cell-based; conditions: pc-3, 12 h
[6] = target: T1, Chromobox protein homolog 7; assay: Binding affinity to 15N-labeled CBX7ChD (7 to 66 residues) (unknown origin) expressed in RIPL-BL21 (DE3)-CodonPlus competent cells by HSQC/NMR titration
[7] = target: T3, Chromobox protein homolog 7 (Mus musculus); assay: Antagonist activity at CBX7ChD (7 to 66 residues) expressed in mouse embryonic stem cells assessed as transcriptional derepression of noggin at 0.5 uM after 18 to 36 hrs by qPCR method; type: cell-based
[8] = target: T3, Chromobox protein homolog 7 (Mus musculus); assay: Antagonist activity at CBX7ChD (7 to 66 residues) expressed in mouse embryonic stem cells assessed as reduction of protein occupancy at Hoxd3 gene locus at 0.5 uM after 18 to 36 hrs by ChIP analysis; type: cell-based
[9] = target: T3, Chromobox protein homolog 7 (Mus musculus); assay: Antagonist activity at CBX7ChD (7 to 66 residues) expressed in mouse embryoid bodies assessed as transcriptional derepression of p16INK4a mRNA levels at 1 to 2 uM after 12 hrs by qPCR method
[10] = Induction of transcriptional derepression of Gapdh in mouse embryonic stem cells at 0.5 uM after 18 to 36 hrs by qPCR method; type: cell-based; conditions: embryonic stem cell
[11] = target: T2, Chromobox protein homolog 7 (Homo sapiens); assay: Binding affinity to CBX7ChD (7 to 66 residues) (unknown origin) expressed in RIPL-BL21 (DE3)-CodonPlus competent cells assessed as enhancement of FITC-ANRIL-loopC/FITC-16mer-RNA binding to protein by fluorescence anisotropy assay
[12] = target: T2, Chromobox protein homolog 7 (Homo sapiens); assay: Antagonist activity at CBX7ChD (7 to 66 residues) expressed in human PC3 cells assessed as transcriptional derepression of p16INK4a after 12 hrs by qPCR method; type: cell-based; conditions: PC-3
[13] = target: T3, Chromobox protein homolog 7 (Mus musculus); assay: Antagonist activity at CBX7ChD (7 to 66 residues) expressed in mouse embryonic stem cells assessed as transcriptional derepression of Hoxd3 at 0.5 uM after 18 to 36 hrs by qPCR method; type: cell-based

Structure (SMILES) | pKi [1] | inhibition [2] | further results
COc1cccc(C(=O)N2CCN(C(=O)COc3cc(C)c(N)c(C(C)C)c3)CC2)c1OC |  | inactive | 
COc1cccc(C(=O)N2CCN(C(=O)COc3ccc(N)c(C)c3)CC2)c1OC | 4.41 |  | 
COc1cccc(C(=O)N2CCN(C(=O)COc3cccc(C)c3)CC2)c1OC | 4.48 | inactive | pKd [3]: 3.90
Cc1ccccc1Cn1c(=N)n(CC(O)c2ccc(Cl)c(Cl)c2)c2ccccc21 (stereo not given) |  |  | inhibition [4]: Active; Activity [5]: Non-toxic; pKd [3]: 4.62; pKd [6]: 3.30; inhibition [7]: Active; inhibition [8]: Active; inhibition [9]: Active; Activity [10]: Non-toxic; Activity [11]: Dose-dependent effect; inhibition [12]: Dose-dependent effect; inhibition [13]: Active
CCS(=O)(=O)Nc1ccc(OCC(=O)N2CCN(C(=O)c3cccc(OC)c3OC)CC2)cc1C | 4.60 | inactive | 

Second part, led by results:

pKi [1] | inhibition [2] | Structure (SMILES) | further results
5.00 | inactive | CCS(=O)(=O)Nc1c(C)cc(OCC(=O)N2CCN(C(=O)c3cccc(OC)c3OC)CC2)cc1C | 
5.32 |  | COc1cccc(C(=O)N2CCN(C(=O)COc3cc(C)c(NC(N)=O)c(C)c3)CC2)c1OC | 
 | inactive | COc1cccc(C(=O)N2CCN(C(=O)COc3ccc(NC(C)=O)c(C)c3)CC2)c1OC | 
4.77 |  | COc1cccc(C(=O)N2CCN(C(=O)COc3cc(C)c(N)c(C)c3)CC2)c1OC | 
5.00 |  | COc1cccc(C(=O)N2CCN(C(=O)COc3ccc(NC(N)=O)c(C)c3)CC2)c1OC | 
 | inactive | COc1cccc(C(=O)N2CCN(C(=O)COc3cc(C)c(NS(C)(=O)=O)c(C)c3)CC2)c1OC | 
